These results are taken from patent US20240147987A1, “METHOD FOR IMPROVING THE EFFECT OF THE OOCYTE CRYOPRESERVATION BY REDUCING THE MITOCHONDRIAL TEMPERATURE” (China Agricultural University, priority 2022, published 2024).

Where “and” joins values, the source holds several entries; their conditions need not be identical. Equal values may be shown once.

Data set [1] concerns vitrified porcine oocytes. Kind of data set: Survival rate detection of vitrified oocytes after thawing (FDA staining). As to conditions: freezing group 71.85%. The data set is classed as cell-based. The procedure:
The room temperature was adjusted to 25±1° C. so that the test apparatus and reagents were fully balanced, the experiment was carried out on a 37° C. thermostat, the oocytes were transferred into 20% EG solution for 3 min, and then transferred into the vitrification solution EDFS40 for 30-40 s, the oocytes were then placed on the cryocarrier Cryotop. […] When thawing the oocytes, the Cryotop was taken out from liquid nitrogen, and the oocytes were immediately immersed in PBS containing 1M sucrose (containing 20% FBS) on a thermostatic table (37° C.) for 1 min, and then transferred to PBS containing 0.5M and 0.25M sucrose (containing 20% FBS) for 3 min, and then placed in PBS containing 20% FBS for recovery for 5 min, and then washed three times with mature medium and placed in mature medium for recovery for 2 hours. • (1) Survival Rate Detection of Oocytes after Thawing
The survival rate of oocytes was detected by FDA (fluorescein diacetate) staining. The collected oocytes were incubated in TL-HEPES-0.3% BSA solution containing 2.5 μg/mL FDA for 1 min and then washed three times with TL-HEPES-0.3% BSA solution, the oocytes were placed on a petri dish and observed using a fluorescence microscope, the oocytes with green fluorescence were considered to be alive.

The test system of data set [2] is porcine oocytes. Kind of data set: Parthenogenetic activation of oocytes (cleavage and blastocyst development). The procedure:
After the first polar body was extruded, mature oocytes with uniform cytoplasm were selected for parthenogenetic activation. The oocytes were washed three times with a pre-heated electro-activation solution, and then the oocytes were placed between electrodes filled with the activation solution, the electro-activation solution was 0.3 M mannitol, 0.05 mM CaCl2, 0.1 mM MgCl2, and 0.4% (m/v) bovine serum albumin dissolved in water. An electric fusion meter (Fujihira Industry Co. Ltd, Tokyo, Japan) was used for electrical activation, the electric field intensity was 65 V/mm, the DC pulse duration was 80 μs, and the number of pulses was 1. The activated oocytes were cultured in PZM-3 containing 5 μg/mL cytochalasin B and 10 μg/mL cycloheximide at 38.5° C., 5% CO2 for 4 h. Then the oocytes were washed and cultured in PZM-3 (day 0). The number of cleavage embryos was counted on day 2 and blastocyst formation was recorded on day 7.

Data set [3] concerns porcine oocytes. Kind of data set: Oocyte mitochondrial temperature detection (Mito Thermo Yellow probe fluorescence). The data set is classed as cell-based. The procedure: (§1) 100 nM Mito Thermo Yellow dye was added in TL-HEPES-0.3% BSA solution and preheated for 15 min at 37° C. in an incubator containing 5% CO2, the oocytes were moved into the preheated dye solution in the incubator for 15 min and then washed three times with TL-HEPES-0.3% BSA for 10 min each time, the fluorescence intensity was detected by laser confocal microscopy, and the changes of mitochondrial temperature were analyzed.
Metformin can effectively reduce mitochondrial heat production.

Data set [4] has as its system vitrified oocytes. Kind of data set: Mitochondrial temperature of vitrified oocytes after thawing (MTY probe). The data set is classed as cell-based, porcine. As to conditions: metformin pretreatment before freezing; P<0.01. The method, then:
as §1
The room temperature was adjusted to 25±1° C. so that the test apparatus and reagents were fully balanced, the experiment was carried out on a 37° C. thermostat, the oocytes were transferred into 20% EG solution for 3 min, and then transferred into the vitrification solution EDFS40 for 30-40 s, the oocytes were then placed on the cryocarrier Cryotop. […]
The effect of metformin pretreatment on the mitochondrial temperature of vitrified oocytes was further analyzed.

Data set [5] deals with porcine oocytes. Kind of data set: Oocyte membrane fluidity detection by FRAP. As to conditions: metformin pretreatment; P<0.05. The data set is classed as cell-based. The method, then: The membrane fluidity of oocytes was detected by fluorescence recovery after photobleaching (FRAP). The oocytes were first placed in TL-HEPES-0.3% BSA solution containing cell membrane fluorescent probe Dil, and incubated at 37° C. in the incubator containing 5% CO2 for 10 min. After incubation, the oocytes were washed three times within TL-HEPES-0.3% BSA solution, and then the oocytes were placed in a confocal dish. FRAP experiments were performed on a confocal microscope. Firstly, a bleaching area was selected, and three fluorescence images were collected before bleaching, with an interval of 5 s for each image. The bleaching fluorescence intensity was 100%, and the bleaching time was 7.93 s. Recovery time was 3 min after bleaching, and fluorescence images were collected at 5 s intervals. The fluorescence intensity of the bleaching area was statistically analyzed and the data were normalized.

Data set [6] concerns vitrified oocytes. Kind of data set: Ultrastructural observation of lipid droplets in oocytes (TEM). The data set is classed as cell-based, porcine. As to conditions: metformin pretreatment.
Method: The oocytes were washed with DPBS and fixed overnight at 4° C. in a 0.1M dimethylarsenate buffer containing 2.5% (m/v) glutaraldehyde. After washing with DPBS, oocytes were fixed with 1% osmic acid, then washed with DPBS, and dehydrated in a gradient of 30%, 50%, 70%, 80%, 90%, and 100% acetone. The epoxy resin SPURR was used for embedding-polymerization, and the LKB-V slicing machine (ultra-thin slice thickness 50 nm (diamond knife)) was used for slicing, and then the double staining of uranium acetate-lead citrate was carried out on the copper mesh of the electron microscope, the copper mesh containing the sample was dried in a glass dish overnight, and the image was collected using a transmission electron microscope (TEM) at 80 kv (HITACHI, New Bio-TEM H-7500, Japan).
The mark [7] stands for this setting: rotenone-treated group vs control group, after parthenogenetic activation, P<0.01.
[8] abbreviates: 1 μM UK5099 vs control group, after parthenogenetic activation.
[9] abbreviates: 2 μM UK5099 vs control group, after parthenogenetic activation.
The mark [10] stands for this setting: UK5099 0.5 μM, 1 μM, 2 μM, 4 μM.

With `CC[C@H]1/C=C/C=C/C[C@@H](C)[C@H](O)[C@@](C)(O)C(=O)[C@@H](C)[C@H](O)[C@@H](C)C(=O)[C@@H](C)[C@H](O)[C@@H](C)/C=C/C(=O)O[C@@H]2[C@H](C)[C@H](CC1)O[C@]1(CC[C@H](C)[C@H](C[C@@H](C)O)O1)[C@H]2C` [oligomycin], the “Survival rate (%)” value in data set [1] (oligomycin pretreatment before vitrification, P<0.05) is recorded as 29.79%; in data set [1] (oligomycin pretreatment before vitrification, P<0.05, listed as Oligomycin), 29.79^c(56/188) %. In addition, the blastocyst development rate result in data set [2] (0.5 μM oligomycin vs control group) is listed as “significantly lower”. Besides, the blastocyst development result is recorded as “significantly lower” in data set [2] (1.5 μM oligomycin vs control group, P<0.01) and “significantly lower” in data set [2] (2.5 μM oligomycin vs control group, P<0.01). Also, the cleavage rate result in data set [2] (different concentrations of oligomycin vs control group, parthenogenetic activation, P<0.01) was “significantly lower”. The mitochondrial temperature entry is recorded as “significantly reduce” in data set [3] (0.5 μM oligomycin treatment for 1 h, P<0.01); “significantly reduce” in data set [3] (1.5 μM oligomycin treatment for 1 h, P<0.01); “significantly reduce” in data set [3] (2.5 μM oligomycin treatment for 1 h, P<0.01).

Turning to `C=C(C)[C@H]1Cc2c(ccc3c2O[C@@H]2COc4cc(OC)c(OC)cc4[C@@H]2C3=O)O1` [rotenone], in data set [2] (setting [7]), the blastocyst development rate result was “significantly decreased” and the cleavage rate result is on record as “significantly decreased”. For the same compound, in data set [2] (summary statement on rotenone), the cytotoxicity result is listed as “greater cytotoxicity”. In data set [3] (1 μM rotenone treatment for 1 h, P<0.01), the mitochondrial temperature result is on record as “significantly reduced”.

As to `CN(C)C(=N)N=C(N)N` [metformin], the “mitochondrial temperature of vitrified oocytes after thawing” value in data set [4] is listed as “significantly higher than that of the conventional freezing group”. For the same compound, the “Survival rate (%)” value is recorded as 81.36% in data set [1] (pretreated with 400 μM metformin for 1 h before vitrification, P<0.05) and 81.36^c(179/330) % in data set [1] (pretreated with 400 μM metformin for 1 h before vitrification, P<0.05, listed as Metformin). For the same compound, in data set [2] (metformin pretreatment group vs control group, after parthenogenetic activation, day 2), the cleavage rate entry was “no significant difference”. Besides, the blastocyst development rate entry in data set [2] (metformin pretreatment group vs control group, after parthenogenetic activation, day 7) is on record as “no significant difference”. The plasma membrane fluidity result in data set [5] is “significantly decreased”. Also, the mitochondrial temperature result in data set [3] (400 μM metformin treatment for 1 h, P<0.05) is listed as “significantly reduce mitochondrial temperature”. The “size of lipid droplets in oocytes” value in data set [6] is “close to that of the fresh group”.

Regarding `N#C/C(=C\c1cn(-c2ccccc2)c2ccccc12)C(=O)O` [UK5099], in data set [1] (UK5099 pretreatment before vitrification, P>0.05), the “Survival rate (%)” value is 67.50% and 67.50^b(135/200) %. Moreover, the blastocyst rate result in data set [2] (setting [8]) and in data set [2] (setting [9]) was “not significantly different” each time. Besides, the cleavage rate result in data set [2] (setting [8]) and in data set [2] (setting [9]) was “not significantly different” throughout. The “blastocyst rate, trend with concentration” value in data set [2] (setting [10]) is recorded as “decreased with the increase of UK5099 concentration”. The “cleavage rate, trend with concentration” value in data set [2] (setting [10]) is recorded as “decreased with the increase of UK5099 concentration”. Besides, the mitochondrial temperature result is “significantly reduced” in data set [3] (1 μM UK5099 treatment for 1 h, P<0.05) and “significantly reduced” in data set [3] (2 μM UK5099 treatment for 1 h, P<0.01).
